According to patent US8551312B2, “Process to prepare amino acid-N, N-diacetic acid compounds” (Akzo Nobel N.V., priority 2006, dated 2013):

Legend:
Format in all cases: physicochemical
[1] = Viscosity (Brookfield DV-II+ pro viscometer, S-18 spindle); settings: c. 40 wt % chelate in water
Description: (§1) Commercial Dissolvine® GL-38, Dissolvine® H-40 ex Akzo Nobel Chemicals, and Trilon® M ex BASF were used as reference GLDA-Na4, HEDTA-Na3, and MGDA-Na3, respectively. The partially acidified chelates (40% in water) were prepared by addition of the corresponding chelate acid (in water) to the commercial product until the highest pH was obtained at which less than 0.1 wt % fully neutralized chelate is present. GLDA-H4 was prepared by electrodialysis and MGDA-Nax<3H3−x was made from Trilon® M by ion exchange. The desired pH was derived from the species distribution graphs that are based on the protonation constants. The resulting chelate solutions all have a chelate content (Fe-TSV) between 38.3 and 43 wt % of the salt actually present.
The viscosity was determined with a Brookfield DV-II+ pro viscometer, using a S-18 spindle. The temperature was maintained with a cryostat.

[2] = pH of the c. 40 wt % chelate solution by glass electrode; settings: c. 40 wt % chelate solution as such
Description: as §1, with “constants.” for “constants. The resulting chelate solutions all have a chelate content (Fe-TSV) between 38.3 and 43 wt % of the salt actually present.”
The pH of the c. 40 wt % chelate solution as such was determined by a glass electrode.

[3] = Conductivity of c. 40 wt % chelate solution (Knick Konductometer 703); settings: c. 40 wt % chelate in water
Description: as §1
The conductivity was measured with a Knick Konductometer 703.

[4] = Corrosiveness against aluminium, weight loss of submerged plates; settings: aluminium plates submerged in c. 40 wt % chelate solution at RT
Description: as §1
The corrosiveness against aluminium was determined using unspecified aluminium plates. The aluminium plates of 6×3×0.2 cm, supplied by the technical service, were cleaned with ethanol cleaner and dried and the weight of the plates was measured. Subsequently, the plates were completely submerged in the commercial or partially acidified chelate solution and kept at RT. In time, the plates were removed from the solutions, rinsed, dried by technical air, and weighted. The corrosiveness was expressed as the weight loss after a certain period of time. Furthermore, the aluminium plates and the chelate solution were visually inspected to evaluate the corrosion process.

O=C([O-])CN(CCO)CCN(CC(=O)[O-])CC(=O)[O-].[Na+].[Na+].[Na+] [HEDTA-Na3]
Viscosity at 20° C. (Mpas) [1]: 31 Mpas | Viscosity at 40° C. (Mpas) [1]: 14.7 Mpas | pH [2]: 13.4 | Conductivity (mS/cm) at 20° C. [3]: 20.29 mS/cm | Corrosiveness Aluminium (% weigth loss after 70 hr) [4]: 7 % weigth loss

CC(C(=O)[O-])N(CC(=O)[O-])CC(=O)[O-].[Na+].[Na+].[Na+] (stereo not drawn) [MGDA-Na3]
Viscosity at 20° C. (Mpas) [1]: 26 Mpas | Viscosity at 40° C. (Mpas) [1]: 11.0 Mpas | pH [2]: 13.5 | Conductivity (mS/cm) at 20° C. [3]: 25.8 mS/cm | Corrosiveness Aluminium (% weigth loss after 70 hr) [4]: 6 % weigth loss

tetrasodium glutamic acid-N,N-diacetate [GLDA-Na4]
Viscosity at 20° C. (Mpas) [1]: 51.5 Mpas | Viscosity at 40° C. (Mpas) [1]: 21.4 Mpas | pH [2]: 13.5 | Conductivity (mS/cm) at 20° C. [3]: 20.9 mS/cm | Corrosiveness Aluminium (% weigth loss after 70 hr) [4]: 7 % weigth loss
